Source: patent US20230183193A1, “4-DIFLUOROMETHYL BENZOYL AMIDES WITH HERBICIDAL ACTION” (BAYER CROPSCIENCE AKTIENGESELLSCHAFT, priority 2017, published 2023)

Experiments:
Assay type in all cases: in vivo
[1] = system: Cyperus serotinus; assay: Pre-emergence herbicidal action, CYPES; conditions: dosage 320 g/ha, scored visually after 3 weeks vs untreated controls
Description: (§1) 1. Pre-Emergence Herbicidal Action Against Harmful Plants Seeds of monocotyledonous and dicotyledonous weed plants and crop plants are laid out in sandy loam soil in wood-fiber pots and covered with soil. The compounds of the invention, formulated in the form of wettable powders (WP) or as emulsion concentrates (EC), are then applied to the surface of the covering soil in the form of an aqueous suspension or emulsion at a water application rate equating to […], with addition of 0.2% wetting agent. After the treatment, the pots are placed in a greenhouse and kept under good growth conditions for the trial plants. The damage to the test plants is scored visually after a test period of 3 weeks by comparison with untreated controls (herbicidal activity in percent (%): 100% activity=the plants have died, 0% activity=like control plants).
(§2) For comparison, the herbicidal activity of numerous compounds according to the invention was tested with the structurally closest compounds known from the documents WO 2011/035874, WO 2012/028579 and WO 2012/126932, by the pre- and post-emergence method.

[2] = system: Pharbitis purpureum; assay: Post-emergence herbicidal action, PHBPU; conditions: 80 g/ha, Table D
Method: (§3) Seeds of monocotyledonous and dicotyledonous weed and crop plants are laid out in sandy loam soil in wood-fiber pots, covered with soil and cultivated in a greenhouse under good growth conditions. 2 to 3 weeks after sowing, the test plants are treated at the one-leaf stage. The compounds of the invention, formulated in the form of wettable powders (WP) or as emulsion concentrates (EC), are then sprayed onto the green parts of the plants in the form of an aqueous suspension or emulsion at a water application rate equating to […], with addition of 0.2% wetting agent. After the test plants have been left to stand in the greenhouse under optimal growth conditions for about 3 weeks, the action of the preparations is assessed visually in comparison to untreated controls (herbicidal action in percent (%): 100% activity=the plants have died, 0% activity=like control plants). […] At the same time, inventive compounds leave Gramineae crops such as barley, wheat, rye, millet/sorghum, corn or rice virtually undamaged when applied post-emergence, even at high active compound dosages. In addition, some substances are also harmless to dicotyledonous crops such as soya, cotton, oilseed rape, sugar beet or potatoes. Some of the compounds according to the invention have high selectivity and are therefore suitable for controlling unwanted vegetation in agricultural crops by the post-emergence method. The data of Tables C and D below illustrate, in an exemplary manner, the […] herbicidal action of the compounds according to the invention, the herbicidal activity being stated in percent.
as §2

[3] = system: Setaria viridis; assay: Post-emergence herbicidal action, SETVI; conditions: 80 g/ha, Table C
Method: as §3, §2

[4] = system: Amaranthus retroflexus; assay: Pre-emergence herbicidal action, AMARE; conditions: dosage 320 g/ha, scored visually after 3 weeks vs untreated controls
Description: as §1, §2

[5] = system: Stellaria media; assay: Post-emergence herbicidal action, STEME; conditions: 80 g/ha, Table D
Method: as §3, §2

[6] = system: Avena fatua; assay: Pre-emergence herbicidal action, AVEFA; conditions: dosage 320 g/ha, scored visually after 3 weeks vs untreated controls
Description: as §1, §2

[7] = system: Amaranthus retroflexus; assay: Post-emergence herbicidal action, AMARE; conditions: 80 g/ha, Table D
Method: as §3, §2

[8] = system: Matricaria inodora; assay: Pre-emergence herbicidal action, MATIN; conditions: dosage 320 g/ha, scored visually after 3 weeks vs untreated controls
Description: as §1, §2

[9] = system: ECHCG; assay: Post-emergence herbicidal action, ECHCG; conditions: 80 g/ha, Table C
Method: as §3

[10] = system: Alopecurus myosuroides; assay: Pre-emergence herbicidal action, ALOMY; conditions: dosage 320 g/ha, scored visually after 3 weeks vs untreated controls
Description: as §1, §2

[11] = system: Abutilon theophrasti; assay: Pre-emergence herbicidal action, ABUTH; conditions: dosage 320 g/ha, scored visually after 3 weeks vs untreated controls
Description: as §1, §2

[12] = system: Stellaria media; assay: Pre-emergence herbicidal action, STEME; conditions: dosage 320 g/ha, scored visually after 3 weeks vs untreated controls
Description: as §1, §2

[13] = system: Abutilon theophrasti; assay: Post-emergence herbicidal action, ABUTH; conditions: 80 g/ha, Table D
Method: as §3, §2

[14] = system: Setaria viridis; assay: Pre-emergence herbicidal action, SETVI; conditions: dosage 320 g/ha, scored visually after 3 weeks vs untreated controls
Description: as §1, §2

[15] = system: Viola tricolor; assay: Post-emergence herbicidal action, VIOTR; conditions: 80 g/ha, Table D
Method: as §3, §2

[16] = system: Viola tricolor; assay: Pre-emergence herbicidal action, VIOTR; conditions: dosage 320 g/ha, scored visually after 3 weeks vs untreated controls
Description: as §1, §2

[17] = system: Avena fatua; assay: Post-emergence herbicidal action, AVEFA; conditions: 80 g/ha, Table C
Method: as §3, §2

| SMILES | herbicidal activity CYPES [1] [%] | Herbicidal activity PHBPU [2] [%] | herbicidal activity SETVI [3] [%] | herbicidal activity AMARE [4] [%] | Herbicidal activity STEME [5] [%] | herbicidal activity AVEFA [6] [%] | herbicidal activity AMARE [7] [%] | herbicidal activity MATIN [8] [%] | Herbicidal activity ECHCG [9] [%] | herbicidal activity ALOMY [10] [%] | herbicidal activity ABUTH [11] [%] | Herbicidal activity STEME [12] [%] | herbicidal activity ABUTH [13] [%] | herbicidal activity SETVI [14] [%] | herbicidal activity VIOTR [15] [%] | herbicidal activity VIOTR [16] [%] | herbicidal activity AVEFA [17] [%] |
| --- | --- | --- | --- | --- | --- | --- | --- | --- | --- | --- | --- | --- | --- | --- | --- | --- | --- |
| CCS(=O)(=O)c1c(C(F)F)ccc(C(=O)Nc2nnnn2C)c1F [Example 1-42] | 100 | 100 | 90 | 100 | 100 | 100 | 100 | 100 | 80 | 100 | 100 | 100 | 90 | 100 | 100 | 100 | – |
| CCc1c(C(=O)Nc2nnnn2CC)ccc(C(F)F)c1[S+](C)[O-] (stereo not drawn) [Example 2-14] | 100 | 90 | 100 | 100 | 100 | 100 | 100 | 100 | 100 | 100 | 100 | 100 | 100 | 100 | 100 | 100 | 90 |
| CCn1nnnc1NC(=O)c1ccc(C(F)F)c(S(C)(=O)=O)c1F [Example 2-39] | 100 | 90 | 100 | 100 | 100 | 100 | 90 | 100 | 90 | – | 100 | 100 | 100 | 100 | 100 | 100 | 80 |
| CCn1nnnc1NC(=O)c1ccc(C(F)F)c(S(=O)(=O)CC)c1F [Example 2-42] | 90 | 90 | 100 | 100 | 100 | 90 | 90 | 100 | 100 | 90 | 100 | 90 | 100 | 100 | 100 | 100 | – |
| Cc1c(C(=O)Nc2ncnn2C)ccc(C(F)F)c1[S+](C)[O-] (stereo not drawn) [Example 4-2] | 80 | 90 | 80 | 100 | 90 | 80 | 100 | 100 | 100 | – | 100 | 100 | 90 | 100 | 100 | 90 | 80 |
| CCSc1c(C(F)F)ccc(C(=O)Nc2ncnn2C)c1C [Example 4-4] | – | 80 | 90 | 100 | 90 | – | 100 | 100 | 100 | – | – | 100 | 80 | – | 100 | 100 | – |
| CC[S+]([O-])c1c(C(F)F)ccc(C(=O)Nc2ncnn2C)c1C (stereo not drawn) [Example 4-5] | – | 90 | 90 | 100 | 90 | – | 90 | 90 | 90 | – | – | – | 80 | – | 100 | 100 | – |
| CCS(=O)(=O)c1c(C(F)F)ccc(C(=O)Nc2ncnn2C)c1C [Example 4-6] | 100 | 80 | 100 | 100 | 100 | – | 100 | 100 | 100 | – | 100 | 90 | 100 | 90 | 100 | 100 | – |
| CSc1c(C(F)F)ccc(C(=O)Nc2ncnn2C)c1F [Example 4-37] | – | – | 90 | 100 | 80 | – | 100 | 100 | 80 | – | 100 | 100 | 80 | – | 80 | 90 | – |
| Cn1ncnc1NC(=O)c1ccc(C(F)F)c([S+](C)[O-])c1F (stereo not drawn) [Example 4-38] | – | 90 | – | – | 90 | – | 90 | – | 80 | – | 90 | – | 90 | – | 100 | – | – |
| CCSc1c(C(F)F)ccc(C(=O)Nc2ncnn2C)c1F [Example 4-40] | 100 | – | 90 | 100 | 90 | – | 100 | 100 | 90 | – | 100 | 100 | 80 | 80 | 80 | 100 | – |
| CC[S+]([O-])c1c(C(F)F)ccc(C(=O)Nc2ncnn2C)c1F (stereo not drawn) [Example 4-41] | – | 90 | – | 100 | 90 | – | 90 | – | 80 | – | 100 | 80 | 100 | 80 | 90 | 90 | – |
| CCSc1c(C(F)F)ccc(C(=O)Nc2nonc2Cl)c1C [Example 6-4] | – | 80 | 100 | 100 | 90 | 90 | – | 90 | 100 | – | 90 | 90 | 90 | 100 | 100 | 100 | – |
